# Source: patent publication US20060069132A1, “Azolecarboxamide herbicides” (priority 2004, published 2006)
# Where two headings read alike, the source gives them in different places.
# Experiments:
# kochia = experiment: Test C pre-/postemergence herbicide test; type: in vivo, Kochia scoparia; conditions: for Plant response rating, Kochia: preemergence
# Summary of the method: (§1)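 Preemergence: seeds planted and treated with compound in non-phytotoxic solvent with surfactant; postemergence: plants at 2 to 18 cm (1- to 4-leaf stage) sprayed likewise. Kept in greenhouse 12 to 14 days, then visually rated against controls, 0 (no effect) to 100 (complete control).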
# lambsquarters = experiment: Test C pre-/postemergence herbicide test; type: in vivo, Chenopodium album; conditions: for Plant response rating, Lambsquarters: preemergence
# Summary of the method: as §1
# Surinam grass = experiment: Test C pre-/postemergence herbicide test; type: in vivo, Urochloa decumbens; conditions: for Plant response rating, Surinam Grass: preemergence
# Summary of the method: as §1
# pigweed = experiment: Test C pre-/postemergence herbicide test; type: in vivo, Amaranthus retroflexus; conditions: for Plant response rating, Pigweed: preemergence
# Summary of the method: as §1
# giant foxtail = experiment: Test A pre-/postemergence herbicide test; type: in vivo, Setaria faberi; conditions: for pest or weed control at 500 g/ha / pest or weed control at 2000 g/ha: Setaria faberi, 240 h
# Summary of the method: (§2)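 Sandy loam soil given preemergence directed spray; plants at 2 to 10 cm, one- to two-leaf stage, sprayed to runoff postemergence, compounds in non-phytotoxic solvent with surfactant. Injury rated visually versus untreated controls after about ten greenhouse days, 0 (no effect) to 100 (complete control); dash means not tested.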
# corn = experiment: Test C pre-/postemergence herbicide test; type: in vivo, Zea mays; conditions: for Plant response rating, Corn: preemergence
# Summary of the method: as §1
# velvetleaf [1] = experiment: Test A pre-/postemergence herbicide test; type: in vivo, Abutilon theophrasti
# Summary of the method: as §2
# morningglory = experiment: Test A pre-/postemergence herbicide test; type: in vivo, Ipomoea spp.; conditions: for pest or weed control at 500 g/ha / pest or weed control at 2000 g/ha: Ipomoea, 240 h
# Summary of the method: as §2
# velvetleaf [2] = experiment: Test C pre-/postemergence herbicide test; type: in vivo, Abutilon theophrasti; conditions: for Plant response rating, Velvetleaf: preemergence
# Summary of the method: as §1
# [3] = Postemergence, 500 g ai/ha, scale 0 to 100
# [4] = 125 g ai/ha, scale 0 (no effect) to 100 (complete control), visual, 12 to 14 days
# [5] = 500 g ai/ha, scale 0 to 100 (0 no effect, 100 complete control), visual, 12 to 14 days
# [6] = Postemergence, 500 g ai/ha, 0 to 100 scale, 0 no effect, 100 complete control
# [7] = Postemergence, 2000 g ai/ha, 0 to 100 scale, 0 no effect, 100 complete control
# [8] = Preemergence, 2000 g ai/ha, visual rating, 0 to 100 scale (0 no effect, 100 complete control)
# [9] = preemergence, 500 g ai/ha, visual injury, 0 to 100 scale (0 no effect, 100 complete control)
smiles,measurement,setting,value
"CCn1nc(C(C)(C)C)cc1C(=O)Nc1cccc(C(=O)OCCF)c1 [Compound 82, 2-fluoroethyl 3-[[[3-(1,1-dimethylethyl)-1-ethyl-1H-pyrazol-5-yl]-carbonyl]amino]benzoate]",pest or weed control at 250 g/ha,"kochia; Bassia scoparia, post-emergence, Postemergence, 250 g ai/ha, scale 0 to 100, 0 no effect, 100 complete control, read-out: Plant response rating, Kochia",50%
same,pest or weed control at 125 g/ha,"kochia; Bassia scoparia, post-emergence, postemergence, 125 g ai/ha, scale 0 to 100, read-out: Plant response rating, Kochia",40%
same,pest or weed control at 62 g/ha,"kochia; Bassia scoparia, post-emergence, postemergence, 62 g ai/ha, scale 0 to 100, read-out: Plant response rating, Kochia",10%
same,Kochia plant response rating,kochia; [3],70
same,pest or weed control at 250 g/ha,"lambsquarters; Chenopodium album, post-emergence, Postemergence, 250 g ai/ha, scale 0 to 100, 0 no effect, 100 complete control, read-out: Plant response rating, Lambsquarters",80%
same,pest or weed control at 125 g/ha,"lambsquarters; Chenopodium album, post-emergence, postemergence, 125 g ai/ha, scale 0 to 100, read-out: Plant response rating, Lambsquarters",50%
same,pest or weed control at 62 g/ha,"lambsquarters; Chenopodium album, post-emergence, postemergence, 62 g ai/ha, scale 0 to 100, read-out: Plant response rating, Lambsquarters",30%
same,Lambsquarters plant response rating,lambsquarters; [3],100
same,Surinam Grass plant response rating,Surinam grass; [3],40
same,pest or weed control at 250 g/ha,"Surinam grass; Urochloa decumbens, post-emergence, 312 h, Postemergence, 250 g ai/ha, scale 0 to 100, 0 no effect, 100 complete control, read-out: Plant response rating, Surinam Grass",20%
same,pest or weed control at 125 g/ha,"Surinam grass; Urochloa decumbens, post-emergence, 312 h, postemergence, 125 g ai/ha, scale 0 to 100, read-out: Plant response rating, Surinam Grass",10%
same,pest or weed control at 62 g/ha,"Surinam grass; Urochloa decumbens, post-emergence, 312 h, postemergence, 62 g ai/ha, scale 0 to 100, read-out: Plant response rating, Surinam Grass",10%
same,pest or weed control at 250 g/ha,"pigweed; Amaranthus retroflexus, post-emergence, Postemergence, 250 g ai/ha, scale 0 to 100, 0 no effect, 100 complete control, read-out: Plant response rating, Pigweed",100%
same,pest or weed control at 125 g/ha,"pigweed; Amaranthus retroflexus, post-emergence, postemergence, 125 g ai/ha, scale 0 to 100, read-out: Plant response rating, Pigweed",100%
same,pest or weed control at 62 g/ha,"pigweed; Amaranthus retroflexus, post-emergence, postemergence, 62 g ai/ha, scale 0 to 100, read-out: Plant response rating, Pigweed",85%
same,Pigweed plant response rating,pigweed; [3],100
same,pest or weed control at 500 g/ha,"giant foxtail; post-emergence, Postemergence, 500 g ai/ha, 0 to 100 scale, 0 no effect, 100 complete control, read-out: Plant response rating, Foxtail, Giant",20%
same,pest or weed control at 2000 g/ha,"giant foxtail; post-emergence, Postemergence, 2000 g ai/ha, 0 to 100 scale, 0 no effect, 100 complete control, read-out: Plant response rating, Foxtail, Giant",20%
same,pest or weed control at 500 g/ha,"giant foxtail; pre-emergence, Preemergence, 500 g ai/ha, visual rating, 0 to 100 scale (0 no effect, 100 complete control), read-out: Foxtail, Giant plant response rating",0%
same,pest or weed control at 2000 g/ha,"giant foxtail; pre-emergence, Preemergence, 2000 g ai/ha, 0 to 100 scale, 0 no effect, 100 complete control, read-out: Foxtail, Giant plant response rating",0%
same,Corn plant response rating,corn; [3],45
same,"Corn plant response rating (crop injury, 0 = no effect, 100 = complete kill) at 250 g/ha","corn; Zea mays, post-emergence, 312 h, Postemergence, 250 g ai/ha, scale 0 to 100, 0 no effect, 100 complete control",10%
same,"Corn plant response rating (crop injury, 0 = no effect, 100 = complete kill) at 125 g/ha","corn; Zea mays, post-emergence, 312 h, postemergence, 125 g ai/ha, scale 0 to 100",10%
same,"Corn plant response rating (crop injury, 0 = no effect, 100 = complete kill) at 62 g/ha","corn; Zea mays, post-emergence, 312 h, postemergence, 62 g ai/ha, scale 0 to 100",10%
same,pest or weed control at 2000 g/ha,"velvetleaf [1]; Abutilon theophrasti, post-emergence, 240 h, Postemergence, 2000 g ai/ha, 0 to 100 scale, 0 no effect, 100 complete control, read-out: Plant response rating, Velvetleaf",30%
same,pest or weed control at 500 g/ha,"velvetleaf [1]; Abutilon theophrasti, pre-emergence, 240 h, Preemergence, 500 g ai/ha, visual rating, 0 to 100 scale (0 no effect, 100 complete control), read-out: Velvetleaf plant response rating",0%
same,pest or weed control at 2000 g/ha,"velvetleaf [1]; Abutilon theophrasti, pre-emergence, 240 h, Preemergence, 2000 g ai/ha, visual rating, 0 to 100 scale (0 no effect, 100 complete control), read-out: Velvetleaf plant response rating",0%
same,pest or weed control at 500 g/ha,"morningglory; post-emergence, Postemergence, 500 g ai/ha, 0 to 100 scale, 0 no effect, 100 complete control, read-out: Plant response rating, Morningglory",20%
same,pest or weed control at 2000 g/ha,"morningglory; post-emergence, Postemergence, 2000 g ai/ha, 0 to 100 scale, 0 no effect, 100 complete control, read-out: Plant response rating, Morningglory",10%
same,pest or weed control at 500 g/ha,"morningglory; pre-emergence, Preemergence, 500 g ai/ha, visual rating, 0 to 100 scale (0 no effect, 100 complete control), read-out: Morningglory plant response rating",0%
same,pest or weed control at 2000 g/ha,"morningglory; pre-emergence, Preemergence, 2000 g ai/ha, 0 to 100 scale, 0 no effect, 100 complete control, read-out: Morningglory plant response rating",15%
same,pest or weed control at 250 g/ha,"velvetleaf [2]; Abutilon theophrasti, post-emergence, Postemergence, 250 g ai/ha, scale 0 to 100, 0 no effect, 100 complete control, read-out: Plant response rating, Velvetleaf",70%
same,pest or weed control at 125 g/ha,"velvetleaf [2]; Abutilon theophrasti, post-emergence, postemergence, 125 g ai/ha, scale 0 to 100, read-out: Plant response rating, Velvetleaf",10%
same,pest or weed control at 62 g/ha,"velvetleaf [2]; Abutilon theophrasti, post-emergence, postemergence, 62 g ai/ha, scale 0 to 100, read-out: Plant response rating, Velvetleaf",5%
same,Velvetleaf plant response rating,velvetleaf [2]; [3],75
CCN(CC)C(=O)c1cccc(NC(=O)c2cc(C(C)(C)C)nn2C)n1 [Compound 314],"Plant response rating, Kochia","kochia; 62 g ai/ha, scale 0 to 100",0
same,"Plant response rating, Kochia",kochia; [4],0
same,"Plant response rating, Kochia","kochia; 250 g ai/ha, scale 0-100",30
same,"Plant response rating, Kochia",kochia; [5],70
same,"Plant response rating, Lambsquarters","lambsquarters; 62 g ai/ha, scale 0 to 100",0
same,"Plant response rating, Lambsquarters",lambsquarters; [4],10
same,"Plant response rating, Lambsquarters","lambsquarters; 250 g ai/ha, scale 0-100",30
same,"Plant response rating, Lambsquarters",lambsquarters; [5],85
same,"Plant response rating, Surinam Grass","Surinam grass; 62 g ai/ha, scale 0 to 100",0
same,"Plant response rating, Surinam Grass","Surinam grass; 250 g ai/ha, scale 0-100",0
same,"Plant response rating, Surinam Grass",Surinam grass; [5],20
same,"Plant response rating, Pigweed","pigweed; 62 g ai/ha, scale 0 to 100",30
same,"Plant response rating, Pigweed",pigweed; [4],60
same,"Plant response rating, Pigweed","pigweed; 250 g ai/ha, scale 0-100",90
same,"Plant response rating, Pigweed",pigweed; [5],90
same,"Foxtail, Giant plant response rating",giant foxtail; [6],30
same,"Plant response rating, Foxtail, Giant",giant foxtail; [7],70
same,"Foxtail, Giant plant response rating",giant foxtail; [8],90
same,"Foxtail, Giant plant response rating",giant foxtail; [9],60
same,"Plant response rating, Corn","corn; 62 g ai/ha, scale 0 to 100",0
same,"Plant response rating, Corn",corn; [4],0
same,"Plant response rating, Corn","corn; 250 g ai/ha, scale 0-100",0
same,"Plant response rating, Corn",corn; [5],0
same,Velvetleaf plant response rating,velvetleaf [1]; [6],20
same,"Plant response rating, Velvetleaf",velvetleaf [1]; [7],30
same,Velvetleaf plant response rating,velvetleaf [1]; [8],80
same,Velvetleaf plant response rating,velvetleaf [1]; [9],40
same,Morningglory plant response rating,morningglory; [6],30
same,"Plant response rating, Morningglory",morningglory; [7],50
same,Morningglory plant response rating,morningglory; [8],30
same,Morningglory plant response rating,morningglory; [9],10
same,"Plant response rating, Velvetleaf","velvetleaf [2]; 62 g ai/ha, scale 0 to 100",0
same,"Plant response rating, Velvetleaf","velvetleaf [2]; 250 g ai/ha, scale 0-100",80
same,"Plant response rating, Velvetleaf",velvetleaf [2]; [5],85
